Experimental data from patent US20070128217A1 (priority 2003, published 2007).

Assays:
[1] = system: antibodies in sera from SARS patients (sera 1a, 1b, 2, 6, 37, 62, London, SARS-yellow, SARS-green); format: binding, human; set-up: Binding of serum 6 to linear peptides of protein X1 of SARS-CoV Urbani / Binding of serum 37 to linear peptides of protein X1 of SARS-CoV Urbani / Binding of serum 6 to looped/cyclic peptide (PEPSCAN-ELISA) / Binding of serum 37 to looped/cyclic peptide (PEPSCAN-ELISA) / Binding of serum 37 to looped/cyclic peptides of protein X1 of SARS-CoV Urbani / Binding of serum 6 to linear peptides of protein X2 / Binding of serum 37 to linear peptides of protein X2 / Binding of serum 37 to looped/cyclic peptides of protein X2 of SARS-CoV Urbani / Binding of serum 6 to linear peptides of protein M of SARS-CoV Urbani / Binding of serum 37 to linear peptides of protein M of SARS-CoV Urbani / Binding of serum 6 to looped/cyclic peptides of protein M of SARS-CoV Urbani / Binding of serum 37 to looped/cyclic peptides of protein M of SARS-CoV Urbani / Binding of serum 6 to linear peptides of protein X3 of SARS-CoV Urbani / Binding of serum 37 to linear peptides of protein X3 of SARS-CoV Urbani / Binding of serum 37 to looped/cyclic peptides of protein X3 of SARS-CoV Urbani / Binding of serum 6 to linear peptides of protein X4 of SARS-CoV Urbani / Binding of serum 37 to linear peptides of protein X4 of SARS-CoV Urbani / Binding of serum 37 to looped/cyclic peptides of protein X4 of SARS-CoV Urbani / Binding of serum 6 to linear peptides of protein X5 of SARS-CoV Urbani / Binding of serum 37 to linear peptides of protein X5 of SARS-CoV Urbani / Binding of serum 37 to looped/cyclic peptides of protein X5 of SARS-CoV Urbani / Binding of serum 6 to linear peptides of protein N of SARS-CoV Urbani / Binding of serum 37 to linear peptides of protein N of SARS-CoV Urbani / Binding of serum 6 to linear peptide (PEPSCAN-ELISA) / Binding of serum 1a to looped/cyclic peptides of protein N of SARS-CoV Urbani / Binding of serum 1b to looped/cyclic peptides of protein N of SARS-CoV Urbani / Binding of serum 2 to looped/cyclic peptides of protein N of SARS-CoV Urbani / Binding of serum 6 to looped/cyclic peptides of protein N of SARS-CoV Urbani / Binding of serum 37 to looped/cyclic peptides of protein N of SARS-CoV Urbani / Binding of serum 62 to looped/cyclic peptides of protein N of SARS-CoV Urbani / Binding of serum London to looped/cyclic peptides of protein N of SARS-CoV Urbani / Binding of serum SARS-green to looped/cyclic peptides of protein N of SARS-CoV Urbani: unit not given here
[2] = system: rabbit serum obtained by immunizing a rabbit with the SARS-CoV strain Frankfurt 1; format: binding; set-up: Binding of a rabbit serum to linear peptides / Binding of a rabbit serum to looped peptides / Rabbit serum linear peptides / Rabbit serum looped peptides / Binding of a rabbit serum to linear peptides of protein N of SARS-CoV Urbani (Rabbit serum linear peptides) / Binding of a rabbit serum to looped/cyclic peptides of protein N of SARS-CoV Urbani (Rabbit serum looped peptides): unit not given here
[3] = system: control sera (pooled serum of ten healthy LUMC hospital workers; commercial negative donor pooled serum from the Dutch bloodbank); format: binding, human; set-up: Binding of Control serum LUMC to linear peptides / Binding of Control serum Blood-bank to linear peptides / Binding of Control serum LUMC to looped peptides / Binding of Control Serum Blood-Bank to Looped peptides / Binding of Control serum LUMC to linear peptides of the protein M of SARS-CoV Urbani / Binding of Control serum Blood-bank to linear peptides of the protein M of SARS-CoV Urbani / Binding of Control serum LUMC to looped peptides of the protein M of SARS-CoV Urbani / Binding of Control Serum Blood-Bank to Looped peptides of the protein M of SARS-CoV Urbani: unit not given here

Row | Sequence | Binding of serum 1a to linear peptides of protein X5 of SARS-CoV Urbani [1] | Binding of serum 1a to looped/cyclic peptides of protein X5 of SARS-CoV Urbani [1] | Binding of serum 1b to linear peptides of protein X5 of SARS-CoV Urbani [1] | Binding of serum 1b to looped/cyclic peptides of protein X5 of SARS-CoV Urbani [1] | Binding of serum 2 to linear peptides of protein X5 of SARS-CoV Urbani [1] | Binding of serum 2 to looped/cyclic peptides of protein X5 of SARS-CoV Urbani [1] | Binding of serum 6 to linear peptides of protein X5 of SARS-CoV Urbani [1] | Binding of serum 6 to looped/cyclic peptides of protein X5 of SARS-CoV Urbani [1] | Binding of serum 37 to linear peptides of protein X5 of SARS-CoV Urbani [1] | Binding of serum 37 to looped/cyclic peptides of protein X5 of SARS-CoV Urbani [1] | Binding of serum 62 to linear peptides of protein X5 of SARS-CoV Urbani [1] | Binding of serum 62 to looped/cyclic peptides of protein X5 of SARS-CoV Urbani [1] | Binding of serum London to linear peptides of protein X5 of SARS-CoV Urbani [1] | Binding of serum London to looped/cyclic peptides of protein X5 of SARS-CoV Urbani [1] | Rabbit serum linear peptides [2] | Rabbit serum looped peptides [2] | Binding of Control Serum Blood-Bank to Looped peptides [3] | Binding of Control serum Blood-bank to linear peptides [3] | Binding of Control serum LUMC to linear peptides [3] | Binding of Control serum LUMC to looped peptides [3] | further results
1 | TAWLCALGKVLPFHR | 0.7 | 0.4 | 0.5 | 0.3 | 0.6 | 0.6 | 0.5 | 0.9 | 0.7 | 0.4 | 0.7 | 0.7 | 0.6 | 1.3 | 0.7 | 0.8 | 0.4 | 0.7 | 0.4 | 0.6 | Binding of serum SARS-green to linear peptides of protein X5 of SARS-CoV Urbani [1]: 0.7; Binding of serum SARS-green to looped/cyclic peptides of protein X5 of SARS-CoV Urbani [1]: 0.2; Binding of serum SARS-yellow to linear peptides of protein X5 of SARS-CoV Urbani [1]: 0.3; Binding of serum SARS-yellow to looped/cyclic peptides of protein X5 of SARS-CoV Urbani [1]: 0.8
2 | TCTPNVTINCQDPAG | 0.8 | 0.2 | 0.6 | 0.0 | 0.6 | 0.1 | 0.8 | 0.1 | 0.7 | 0.1 | 0.8 | 0.1 | 0.8 | 0.1 | 0.5 | 0.0 | 0.4 | 0.7 | 0.5 | 0.2 | Binding of serum SARS-green to linear peptides of protein X5 of SARS-CoV Urbani [1]: 0.8; Binding of serum SARS-green to looped/cyclic peptides of protein X5 of SARS-CoV Urbani [1]: 0.2; Binding of serum SARS-yellow to linear peptides of protein X5 of SARS-CoV Urbani [1]: 0.2; Binding of serum SARS-yellow to looped/cyclic peptides of protein X5 of SARS-CoV Urbani [1]: 0.0
3 | TCTSTHFAFACADGT | – | – | – | – | – | – | – | – | – | – | – | – | – | – | 0.5 | 0.7 | 0.7 | 0.8 | 0.9 | 0.8 | Binding of serum 1a to linear peptides of protein X4 of SARS-CoV Urbani [1]: 0.8; Binding of serum 1a to looped/cyclic peptides of protein X4 of SARS-CoV Urbani [1]: 0.8; Binding of serum 1b to linear peptides of protein X4 of SARS-CoV Urbani [1]: 0.7; Binding of serum 1b to looped/cyclic peptides of protein X4 of SARS-CoV Urbani [1]: 0.6; Binding of serum 2 to linear peptides of protein X4 of SARS-CoV Urbani [1]: 0.5; Binding of serum 2 to looped/cyclic peptides of protein X4 of SARS-CoV Urbani [1]: 0.8; Binding of serum 6 to linear peptides of protein X4 of SARS-CoV Urbani [1]: 0.7; Binding of serum 6 to looped/cyclic peptides of protein X4 of SARS-CoV Urbani [1]: 0.6; Binding of serum 37 to linear peptides of protein X4 of SARS-CoV Urbani [1]: 0.7; Binding of serum 37 to looped/cyclic peptides of protein X4 of SARS-CoV Urbani [1]: 0.7; Binding of serum 62 to linear peptides of protein X4 of SARS-CoV Urbani [1]: 0.9; Binding of serum 62 to looped/cyclic peptides of protein X4 of SARS-CoV Urbani [1]: 0.8; Binding of serum London to linear peptides of protein X4 of SARS-CoV Urbani [1]: 0.8; Binding of serum London to looped/cyclic peptides of protein X4 of SARS-CoV Urbani [1]: 0.3; Binding of serum SARS-green to linear peptides of protein X4 of SARS-CoV Urbani [1]: 0.6; Binding of serum SARS-green to looped/cyclic peptides of protein X4 of SARS-CoV Urbani [1]: 0.5; Binding of serum SARS-yellow to linear peptides of protein X4 of SARS-CoV Urbani [1]: 0.6; Binding of serum SARS-yellow to looped/cyclic peptides of protein X4 of SARS-CoV Urbani [1]: 0.8
